Source: patent publication US20110104177A1, “HISTONE DEACETYLASE INHIBITORS, COMBINATION THERAPIES AND METHODS OF USE” (THE JOHNS HOPKINS UNIVERSITY, priority 2006, published 2011)

How the values were obtained:
[1] = tested on: SFRP1, SFRP2, E-cadherin, CRBP1 genes in MDA-MB-231 cells; experiment: RT-PCR re-expression of silenced tumor suppressor genes in MDA-MB-231 cells; format: cell-based, human; settings: MDA-MB-231 cells; shRNA retroviral infection; RT-PCR
Procedure: The panels of FIG. 2 are as follows. […] MDA-MB-231 cells were treated with 15 mM NIA or 300 μM SPT for 21 hours, RNA was isolated, and RT-PCR was performed with intron-spanning primers specific for the indicated genes. Control samples in which no reverse transcriptase was added were analyzed separately, and all were negative for amplification of the indicated genes. […] MDA-MB-231 cells were treated with either 50 nM Aza (+), 100 μM SPT (+) or with both Aza and SPT (++), and 34 hours later, RT-PCR was performed for the indicated genes as described in FIG. 2(A). […] MDA-MB-231 cells were treated with either 0, 50, 100, or 120 μM SPT alone for 34 hours, or the treatment was followed by treatment with 300 nM TSA for 3 hours prior to RNA isolation and RT-PCR analysis. […] MDA-MB-231 cells were infected with low titers of virus for shRNA specific for SIRT1. Aza (100 nM) was added 24 hours prior to RNA isolation, and RT-PCR analysis was performed for the genes SFRP 1, SFRP2, and GAPDH as described in FIG. 2(A). […] As shown in the left panel, MDA-MB-231 cells were infected with a control (vec) or mutant SIRT1 virus (HY), and RT-PCR was performed as described in FIG. 2(A). MDA-MB-231 cells were infected with low titers of pBabe or pBabe-SIRT1H363Y retrovirus and subsequently treated with 100 nM Aza for 24 hours or with 300 nM TSA for 3 hours prior to harvest, and RT-PCR was performed.
(§1) Cell culture and retroviral infection. MDA-MB-231, MCF7, HCT116, SW480 RKO, and Phoenix cells (ATCC, Rockville, Md., United States) were cultured in Dulbecco's modified Eagle's medium supplemented with 10% fetal bovine serum and 1% penicillin/streptomycin (Invitrogen, Carlsbad, Calif., United States). Retroviral infection was performed using either single or multiple rounds of infection. Briefly, Phoenix cells were transfected with either pBabe, pBabe-SIRT1H363Y, pSUPERretro, pSUPERretro-SIRT1-RNAi-1-3 (NM_012238 positions 410, 589, and 1091; Oligo Engine, Seattle, Wash., United States) using Lipofectamine 2000 (Invitrogen). After 48 h of transfection, the medium containing retrovirus was collected, filtered, and supplemented with Polybrene prior to infection of target cells (MDA-MB-231, MCF7, or HCT116). Infected cells were either harvested 24-48 hours later or subjected to selection with 2-3 μg/ml puromycin for a week prior to harvest and analysis.
(§2) RNA and protein preparation and analysis. Total RNA was extracted (Invitrogen) according to the manufacturer's instructions and subjected to reverse transcription followed by both quantitative real-time and semi-quantitative polymerase chain reaction. For quantitative real-time analyses, the QuantiTect SYBR Green PCR kit (Qiagen, Valencia, Calif., United States) was used and the amplification conditions consisted of an initial 10-minutes denaturation step at 95° C., followed by 40 cycles of denaturation at 95° C. for 15 s and annealing and extension for 30 seconds and 60 seconds, respectively. A BioRad iCycler was used (BioRad, Hercules, Calif., United States), and for quantitation the comparative cycle threshold (Ct) method was used, normalizing the Ct values for the indicated gene to the Ct values of GAPDH relative to a control sample. For conventional PCR, at least two independent sets of intron-spanning primers were used for the analysis of multiple genes, such as CRBP1, (NM_002899), E-cadherin, (L34545), SFRP1, (BC036503), SFRP2, (BC008666), and Gata-4 (L34357). For Western blots, cells stably expressing RNAi constructs were harvested in 50 mM Tris-HCl, 1% NP-40, 0.25% sodium deoxycholate, 150 mM NaCl, 50 mM sodium fluoride, 1 mM dithiothreitol, 1 mM AEBSF, 1× Complete protease inhibitor cocktail (Roche, Basel, Switzerland). Protein concentrations were measured by BCA (Pierce Biotechnology, Rockford, Ill., United States). […] On the same blot, β-actin (Sigma, St. Louis, Mo., United States) was probed to ensure equal loading.

[2] = tested on: SFRP1 and SFRP2 genes in MCF7 cells; experiment: RT-PCR re-expression of silenced tumor suppressor genes in MCF7 cells; format: cell-based, human; settings: retroviral infection, RT-PCR
Procedure: as §1, §2

[3] = tested on: SIRT1; experiment: Western blot of SIRT1 protein after retroviral shRNA infection; format: cell-based, human
Procedure: as §1, §2

[4] = tested on: SFRP1, SFRP2, GATA4 promoter methylation in MDA-MB-231 cells; experiment: Promoter DNA methylation by bisulfite sequencing and MSP; format: cell-based, human; settings: MDA-MB-231 cells stably infected
From the text: The panels of FIG. 3 are as follows. […] Parallel samples analyzed in FIG. 1D were subjected to bisulfite sequencing of the SFRP1 promoter from MDA-MB-231 cells stably infected with control vector or RNAi-2 or RNAi-3 retrovirus. Open circles indicate unmethylated cytosines, and closed circles indicate methylated cytosines. Numbers at the bottom show the position of cytosines relative to the transcription start site, which is at position 0, and those with a minus sign (−) are upstream from this start site. The region sequenced encompasses the CpG island in which methylation status correlates with gene expression status. […] From left to right: (−) PCR Ctrl indicates H2O only; (−) BS ctrl indicates bisulfite-treated H20; (+) M ctrl indicates the cell line in which SFRP1 is partially methylated and SFRP2 and GATA4 are fully methylated; and (+) U ctrl indicates the Tera-2 cell line in which each gene is unmethylated. All remaining lanes are for MDA-MB-231. From left to right: Aza indicates 1 μM Aza (24 hours) treatment; Ctrl indicates empty vector infection; RNAi-2 indicates shRNA-2 infection alone; RNAi-3 indicates shRNA-3 infection alone; Aza indicates 1 μM Aza (24 hours treatment of control cells; Ctrl indicates empty vector infection+vehicle; RNAi-2 indicates shRNA-2 infection+5 mM NIA treatment; and RNAi-3 indicates shRNA-3 infection+5 mM NIA treatment.
MSP and bisulfite sequencing. […]

[5] = tested on: E-cadherin and MLH1 protein in MDA-MB-231 and RKO cells; experiment: Western blot of tumor suppressor protein re-expression; format: cell-based, human; settings: puromycin selection 3 days
Procedure: The panels in FIG. 1 are as follows. […] Retroviral expression vectors encoding SIRT1 cDNA that produce short hairpin loop RNA targeting either distinct regions of SIRT1 mRNA (RNAi-1, -2, or -3) or a control (ctrl) were used to infect MCF7. Western blot analysis for SIRT1 and β-actin was performed 48 hours after two rounds of infection. […] RNA was isolated from parallel samples analyzed in FIG. 1(A), and RT-PCR was performed with intron-spanning primers specific for the genes SFRP1 and SFRP2. GAPDH was also analyzed as a control. […] Control samples in which no reverse transcriptase was added were analyzed separately, and all were negative for amplification of the indicated genes. […]
RNA and protein preparation and analysis. Total RNA was extracted (Invitrogen) according to the manufacturer's instructions and subjected to reverse transcription followed by both quantitative real-time and semi-quantitative polymerase chain reaction. For quantitative real-time analyses, the QuantiTect SYBR Green PCR kit (Qiagen, Valencia, Calif., United States) was used and the amplification conditions consisted of an initial 10-minutes denaturation step at 95° C., followed by 40 cycles of denaturation at 95° C. for 15 s and annealing and extension for 30 seconds and 60 seconds, respectively. […] Protein concentrations were measured by BCA (Pierce Biotechnology, Rockford, Ill., United States). […]

[6] = tested on: SFRP1, SFRP2, MLH1, CRBP1, E-cadherin genes in RKO cells; experiment: RT-PCR re-expression of silenced tumor suppressor genes in RKO cells; format: cell-based, human
Procedure: To inhibit any residual SIRT1 protein, remaining RNAi-expressing cells were treated with 700 μM SPT and control samples were treated with DMSO for 24 hours. […] RKO cells were also treated with 0.5 μM Aza (24 hours), and samples were analyzed as described in FIG. 1A; RT-PCR was performed with intron-spanning primers specific for the two genes. GAPDH was also analyzed as a control. […] Control samples in which no reverse transcriptase was added were analyzed separately, and all were negative for amplification of the indicated genes. […] The level of TSG re-expression induced by Aza treatment or SIRT1 inhibition as described in FIG. 4(A) was compared to levels of expression in HCT116 cells in which the TSGs are basally expressed.
as §1, §2
(§3) The results from experiments performed in RKO cells are shown in FIG. 7 which presents RT-PCR results for SFRP1. […] The expression seemed stronger than for 300 μM splitomycin (Spt) or 20 mM nicotinamide (Nia) when these latter two drugs were used alone or in combination, but not as strong as the expression induced by 1 μM of the DNA demethylating agent, deoxy-aza-cytidine (Aza). […] Experiments were carried out as essentially described above.

[7] = target: T1, SIRT1 (Homo sapiens, UniProt Q96EB6); experiment: Activity against the SIRT1 enzyme / SIRT1 deacetylase activity; format: biochemical
T1 sequence (Q96EB6 1-747): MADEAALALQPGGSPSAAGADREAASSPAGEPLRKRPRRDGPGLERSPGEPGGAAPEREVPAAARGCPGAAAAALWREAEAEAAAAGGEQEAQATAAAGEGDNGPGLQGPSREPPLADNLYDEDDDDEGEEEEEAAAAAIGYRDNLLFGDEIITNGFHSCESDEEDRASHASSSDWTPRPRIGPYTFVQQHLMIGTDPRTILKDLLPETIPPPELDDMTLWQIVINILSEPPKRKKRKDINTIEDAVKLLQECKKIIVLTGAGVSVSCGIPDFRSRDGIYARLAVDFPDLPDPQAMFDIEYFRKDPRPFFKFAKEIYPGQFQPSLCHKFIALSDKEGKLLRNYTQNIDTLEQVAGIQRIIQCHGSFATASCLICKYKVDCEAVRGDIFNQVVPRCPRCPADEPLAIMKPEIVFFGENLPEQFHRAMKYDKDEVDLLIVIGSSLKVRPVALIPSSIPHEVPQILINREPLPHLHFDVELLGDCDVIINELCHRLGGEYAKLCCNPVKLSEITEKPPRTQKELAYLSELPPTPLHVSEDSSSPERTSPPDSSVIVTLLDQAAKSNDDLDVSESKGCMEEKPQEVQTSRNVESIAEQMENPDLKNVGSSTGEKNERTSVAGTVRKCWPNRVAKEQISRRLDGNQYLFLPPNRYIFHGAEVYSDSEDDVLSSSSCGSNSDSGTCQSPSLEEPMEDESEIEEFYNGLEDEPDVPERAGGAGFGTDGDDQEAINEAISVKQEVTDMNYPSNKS

[8] = tested on: SFRP1 and 2 genes in human breast cancer cells (line H231); experiment: Re-activation of SFRP1 and 2 genes in breast cancer cells (line H231); format: cell-based
Procedure: This has been accomplished for the SFRP1 and 2 genes in human breast cancer cells (line H231) and for SFRP1 in human colon cancer cells (line RKO).
as §3

Row | Compound | gene re-expression of SFRP1, SFRP2 and E-cadherin [1] | gene re-expression of SFRP1 and SFRP2 [2] | reduction of SIRT1 protein (knockdown) ([3]; MCF7 cells, Western blot 48 h after two rounds of infection) | reduction of SIRT1 protein (knockdown) ([3]; MDA-MB-231 cells) | reduction of SIRT1 protein (knockdown) ([3]; RKO cells) | SFRP1 promoter methylation profile (bisulfite sequencing) [4] | protein re-expression (E-cadherin, MLH1) by Western blot [5] | gene re-expression of CRB1 and E-cadherin ([6]; RKO cells stably expressing shRNA, treated with 700 μM SPT 24 hours, RT-PCR) | gene re-expression of SFRP1, SFRP2 and MLH1 ([6]; RKO cells, shRNA retroviral infection, RT-PCR) | SFRP1 expression compared with 1 μM deoxy-aza-cytidine (Aza) ([6]; RKO cells, RT-PCR) | SFRP1 expression compared with 300 μM splitomycin or 20 mM nicotinamide, alone or in combination ([6]; RKO cells, RT-PCR) | SFRP1 RT-PCR specific band ([6]; RKO cells, doses of 20 and 50 μM, 24 or 48 hours) | inhibition of SIRT1 deactylase activity [7] | transcriptional re-activation of SFRP1 and 2 genes [8]
1 | RNAi-3: shRNA targeting SIRT1 mRNA, sequence CATAGACACGCTGGAACAG, NM_012238 position 1091 | led to gene re-expression | led to gene re-expression | greatest knockdown | very effective in reducing protein levels | SIRT1 protein reduction | without changes in the methylation profile | protein re-expression that corresponded with the gene reactivation | leads to gene re-expression | leads to gene re-expression of SFRP1, SFRP2, and MLH1 |  |  |  |  | 
2 | NC(=O)[C@H]1CCCc2c1[nH]c1ccc(Cl)cc21 [(S)-6-chloro-2,3,4,9-tetrahydro-1H-carbazole-1-carboxamide] |  |  |  |  |  |  |  |  |  | not as strong | stronger | produce the band at both time points | potent inhibition | the same effects have been achieved
